Measurements taken from ChEMBL document CHEMBL3232869, “Anti-inflammatory components of Euphorbia humifusa Willd” (Bioorg Med Chem Lett, 2014).
The source made the active and inactive calls. No cut-off for these calls is given here.

Tests used:
RAW264.7 [1] = experiment: Cytotoxicity against mouse RAW264.7 cells assessed as cell viability at 50 uM after 18 hrs by MTT assay in presence of LPS; assay type: cell-based; details: raw264.7, 18 h
[2] = biological target: T1, Bifunctional epoxide hydrolase 2 (Homo sapiens) (UniProt P34913); experiment: Inhibition of sEH (unknown origin) assessed as substrate PHOME hydrolysis at 25 uM after 1 hr by fluorescence method
T1 sequence (whole entry): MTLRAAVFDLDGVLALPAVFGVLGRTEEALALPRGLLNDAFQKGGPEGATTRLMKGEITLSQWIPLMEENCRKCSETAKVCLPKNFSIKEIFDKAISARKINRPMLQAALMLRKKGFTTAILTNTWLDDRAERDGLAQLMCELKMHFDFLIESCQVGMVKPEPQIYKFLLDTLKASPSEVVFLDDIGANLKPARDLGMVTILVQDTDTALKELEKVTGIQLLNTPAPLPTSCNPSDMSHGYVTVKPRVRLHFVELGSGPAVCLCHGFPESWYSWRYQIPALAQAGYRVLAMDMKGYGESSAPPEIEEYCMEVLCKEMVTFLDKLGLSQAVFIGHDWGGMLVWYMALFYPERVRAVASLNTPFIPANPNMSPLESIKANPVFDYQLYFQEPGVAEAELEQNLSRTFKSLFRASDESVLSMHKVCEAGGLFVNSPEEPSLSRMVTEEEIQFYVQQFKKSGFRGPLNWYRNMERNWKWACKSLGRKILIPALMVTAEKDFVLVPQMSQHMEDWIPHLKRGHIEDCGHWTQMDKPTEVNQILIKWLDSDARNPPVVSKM

RAW264.7 [3] = experiment: Antiinflammatory activity in mouse RAW264.7 cells assessed as inhibition of LPS-induced nitric oxide production at 0.4 uM after 18 hrs by griess reaction analysis; assay type: functional, cell-based
RAW264.7 [4] = experiment: Antiinflammatory activity in mouse RAW264.7 cells assessed as inhibition of LPS-induced TNF-alpha secretion at 10 uM after 18 hrs by sandwich ELISA; assay type: functional
[5] = biological target: T2, Bifunctional epoxide hydrolase 2 (Homo sapiens, UniProt P34913); experiment: Inhibition of sEH (unknown origin) assessed as substrate PHOME hydrolysis after 1 hr by fluorescence method
T2 sequence (P34913 whole entry): T1 sequence (whole entry)

RAW264.7 [6] = experiment: Antiinflammatory activity in mouse RAW264.7 cells assessed as inhibition of LPS-induced TNF-alpha secretion after 18 hrs by sandwich ELISA; assay type: functional, cell-based; details: RAW264.7, 18 h
RAW264.7 [7] = experiment: Antiinflammatory activity in mouse RAW264.7 cells assessed as inhibition of LPS-induced nitric oxide production at 10 uM after 18 hrs by griess reaction analysis; assay type: functional
RAW264.7 [8] = experiment: Antiinflammatory activity in mouse RAW264.7 cells assessed as inhibition of LPS-induced nitric oxide production after 18 hrs by griess reaction analysis; assay type: functional, cell-based; details: RAW264.7, 18 h
RAW264.7 [9] = experiment: Antiinflammatory activity in mouse RAW264.7 cells assessed as inhibition of LPS-induced TNF-alpha secretion at 0.4 uM after 18 hrs by sandwich ELISA; assay type: functional, cell-based

| Structure (SMILES) | Activity (RAW264.7 [1]) | inhibition [2] | inhibition (RAW264.7 [3]) | inhibition (RAW264.7 [4]) | IC50 [5] | IC50 (RAW264.7 [6]) | inhibition (RAW264.7 [7]) | IC50 (RAW264.7 [8]) | inhibition (RAW264.7 [9]) |
| --- | --- | --- | --- | --- | --- | --- | --- | --- | --- |
| O=C(OC[C@H]1O[C@@H](OC(=O)c2cc(O)c(O)c(O)c2)[C@H](O)[C@@H](OC(=O)c2cc(O)c(O)c(O)c2)[C@@H]1OC(=O)c1cc(O)c(O)c(O)c1)c1cc(O)c(O)c(O)c1 | Non-toxic | > 40% | inactive | Active | 36.1 µM | 22.6 µM | inactive | > 50 µM | inactive |
| O=c1c(O[C@@H]2O[C@H](CO)[C@H](O)[C@H](O)[C@H]2O)c(-c2ccc(O)c(O)c2)oc2cc(O)cc(O)c12 [HYPEROSIDE] | Non-toxic | > 40% | inactive | Active | 21.8 µM | > 50 µM | inactive | 48.8 µM | inactive |
| COC(=O)[C@H]1CC(=O)c2oc(=O)c3cc(O)c(O)c(O)c3c21 | Non-toxic | > 40% | inactive | Active | > 50 µM | 21.2 µM | Active | 23.8 µM | inactive |
